Results on 17 compounds are retold here after ChEMBL document CHEMBL6177971, “Iterative Optimization Yields Stapled Peptides with Superior Pharmacokinetics and Potency for Renal Fibrosis Treatment” (J Med Chem, 2025).

Activity calls are given as the source filed them. The rule behind the calls is not given here. *1 amine or outer side, *2 acyl side, *3 side chain or, on linkers, in order; H or OH if unused. Where a SMILES comes first, the peptide text is derived from it. Bridges are numbered along the chain shown (N, C = ends). [ ]: non-standard residue; d: D form. S5 = C=CCCC[C@](C)(N)C(=O)O; X4 = C(CC[*:2])C[*:1]

A short description of data set [1]: Half life of compound. The format is physicochemical.
Data set [2] relates to NIH3T3. The data set can be described thus: Inhibition of TGF-beta1-induced EMT in mouse NIH3T3 cells assessed as decrease in alpha-SMA level at 10 uM incubated for 48 hrs by Western blot analysis. It counts as functional, cell-based. For orientation: A western blot detects proteins with antibodies after separation by electrophoresis.
Data set [3] deals with NIH3T3. Briefly: Cytotoxicity against mouse NIH3T3 cells assessed as inhibition of cell viability up to 160 uM incubated for 48 hrs by CCK8 assay. The format is toxicity, cell-based. Particulars: nih3t3, 48 h. For orientation: Tetrazolium assays rely on reduction of a dye to a coloured formazan, in cell work by metabolically active cells.
For data set [4], the system named is NIH3T3. The data set can be described thus: Inhibition of TGF-beta1-induced EMT in mouse NIH3T3 cells assessed as decrease in fibronectin level at 10 uM incubated for 48 hrs by Western blot analysis. It counts as functional, cell-based.
Data set [5] can be described thus: Stability in C57BL/6J mouse serum assessed as proteolysis resistance measured up to 72 hrs by HPLC analysis. The format is ADME, cell-free.

As usually defined, the half-life is how long it takes for the measured level to halve. `C[C@@H](NC(=O)[C@H](CCC(N)=O)NC(=O)[C@@H]1CCCN1C(=O)[C@@H](CC(N)=O)NC(=O)[C@H](CCCCN)NC(=O)[C@H](Cc1c[nH]cn1)NC(=O)[C@H](N)CC(=O)O)C(=O)N[C@@H](CCCNC(=N)N)C(N)=O` had a half-life in data set [1] of 272 h. For the same compound, the inhibition result in the data set with NIH3T3 [2] and in the data set on NIH3T3 [4] was “inactive” in each case. The Activity entry in the data set with NIH3T3 [3] is recorded as “Non-toxic”.

The compound `C=CCCC[C@](C)(NC(=O)[C@H](Cc1c[nH]cn1)NC(=O)[C@H](N)CC(=O)O)C(=O)N[C@H](CC(N)=O)C(=O)N1CCC[C@H]1C(=O)N[C@@H](CCC(N)=O)C(=O)N[C@H](C)C(=O)N[C@@H](CCCNC(=N)N)C(N)=O` had a half-life in data set [1] of 129 h. Further, the inhibition result in the data set on NIH3T3 [2] and in the data set on NIH3T3 [4] was “Active” in each case. Moreover, the Activity entry in the data set on NIH3T3 [3] is listed as “Non-toxic”.

For the compound `C=CCCC[C@](C)(NC(=O)[C@@H](NC(=O)[C@H](CCC(N)=O)NC(=O)[C@@H]1CCCN1C(=O)[C@](C)(CCCC=C)NC(=O)[C@H](CC(N)=O)NC(=O)[C@H](Cc1c[nH]cn1)NC(=O)[C@@H](N)CC(=O)O)[C@@H](C)CC)C(N)=O` (H-DHN[S5]PQI[S5]-NH2), the half-life in data set [1] is 5.67 h. Further, the inhibition result with NIH3T3 [2] and with NIH3T3 [4] was “Active” throughout. The Stability result in data set [5] was “Stable”. Also, the Activity result in the data set on NIH3T3 [3] is reported as “Non-toxic”.

As to H-HNNPQIRD-OH, the half-life in data set [1] was 0.57 h. In addition, in the data set on NIH3T3 [3], the Activity result is listed as “Non-toxic”.

For `C[C@@H](NC(=O)[C@H](CCC(N)=O)NC(=O)[C@@H]1CCCN1C(=O)[C@@H](CC(N)=O)NC(=O)[C@H](Cc1ccccc1)NC(=O)[C@H](Cc1c[nH]cn1)NC(=O)[C@H](N)CC(=O)O)C(=O)N[C@@H](CCCNC(=N)N)C(N)=O`, the half-life in data set [1] was 102 h. The inhibition entry with NIH3T3 [2] and with NIH3T3 [4] was “Active” throughout. In addition, the Activity entry in the data set with NIH3T3 [3] is listed as “Non-toxic”.

As to `CC[C@H](C)[C@@H]1NC(=O)[C@H](CCC(N)=O)NC(=O)[C@@H]2CCCN2C(=O)[C@@](C)(NC(=O)[C@H](CC(N)=O)NC(=O)[C@H](Cc2c[nH]cn2)NC(=O)[C@@H](N)CC(=O)O)CCC/C=C/CCC[C@@](C)(C(N)=O)NC1=O` (H-DHN[S5]PQI[S5]-NH2; staple (E) 4-8), the half-life in data set [1] is 12.3 h. Besides, the inhibition entry in the data set with NIH3T3 [2] and with NIH3T3 [4] was “inactive” throughout. Besides, the Stability entry in data set [5] is given as “Stable”. Besides, the Activity entry in the data set with NIH3T3 [3] is reported as “Non-toxic”.

On to `C=CCCC[C@](C)(NC(=O)[C@H](Cc1c[nH]cn1)NC(=O)[C@@H](CC(=O)O)NC(=O)CCCCCCCCCCCCCCCCC)C(=O)N[C@H](CC(N)=O)C(=O)N1CCC[C@H]1C(=O)N[C@@H](CCC(N)=O)C(=O)N[C@H](C)C(=O)N[C@@H](CCCNC(=N)N)C(N)=O`, for which the inhibition entry with NIH3T3 [2] and in the data set on NIH3T3 [4] was “Active” in each case. The Activity result in the data set on NIH3T3 [3] is given as “Toxic”.

With `C=CCCC[C@](C)(NC(=O)[C@H](Cc1c[nH]cn1)NC(=O)[C@@H](CC(=O)O)NC(=O)CCCCCCCCCCCCC)C(=O)N[C@H](CC(N)=O)C(=O)N1CCC[C@H]1C(=O)N[C@@H](CCC(N)=O)C(=O)N[C@H](C)C(=O)N[C@@H](CCCNC(=N)N)C(N)=O`, the inhibition result in the data set with NIH3T3 [2] and in the data set with NIH3T3 [4] was “Active” in each case. Moreover, the Activity result with NIH3T3 [3] is on record as “Toxic”.

In turn, `CC[C@H](C)[C@@H]1NC(=O)[C@H](CCC(N)=O)NC(=O)[C@@H]2CCCN2C(=O)[C@H](CC(N)=O)NC(=O)[C@H](CC(N)=O)NC(=O)[C@H](Cc2c[nH]cn2)NC(=O)[C@H](CC(=O)O)NC(=O)[C@H](CCCNC(=N)N)NC1=O` (cyclo(DHNNPQIR)) had a half-life in data set [1] of 9.97 h. Further, the inhibition entry in the data set on NIH3T3 [2] and in the data set on NIH3T3 [4] was “Active” throughout. Besides, the Activity entry in the data set on NIH3T3 [3] is “Non-toxic”.

Turning to `C=CCCC[C@](C)(NC(=O)[C@H](Cc1c[nH]cn1)NC(=O)[C@@H](CC(=O)O)NC(=O)CCCCCCCCCCCCCCC)C(=O)N[C@H](CC(N)=O)C(=O)N1CCC[C@H]1C(=O)N[C@@H](CCC(N)=O)C(=O)N[C@H](C)C(=O)N[C@@H](CCCNC(=N)N)C(N)=O`, the inhibition entry in the data set with NIH3T3 [2] and with NIH3T3 [4] was “Active” in each case. In addition, in the data set with NIH3T3 [3], the Activity entry is listed as “Toxic”.

In data set [1], `C[C@@H](NC(=O)[C@H](CCC(N)=O)NC(=O)[C@@H]1CCCN1C(=O)[C@@H](CC(N)=O)NC(=O)[C@H](CC(N)=O)NC(=O)[C@H](Cc1c[nH]cn1)NC(=O)[C@H](N)CC(=O)O)C(=O)N[C@@H](CCCNC(=N)N)C(N)=O` gave a half-life of 101 h. The inhibition entry with NIH3T3 [2] and in the data set on NIH3T3 [4] was “Active” each time. Besides, in the data set on NIH3T3 [3], the Activity entry is listed as “Non-toxic”.

Regarding `C[C@@H](NC(=O)[C@H](CCC(N)=O)NC(=O)[C@@H]1CCCN1C(=O)[C@@H](CC(N)=O)NC(=O)[C@H](CCC(N)=O)NC(=O)[C@H](Cc1c[nH]cn1)NC(=O)[C@H](N)CC(=O)O)C(=O)N[C@@H](CCCNC(=N)N)C(N)=O`, in data set [1], the half-life was 424 h. For the same compound, the inhibition result with NIH3T3 [2] and in the data set on NIH3T3 [4] was “Active” throughout. Further, in the data set on NIH3T3 [3], the Activity entry is “Non-toxic”.

Compound `CC[C@H](C)[C@H](NC(=O)[C@H](Cc1c[nH]cn1)NC(=O)[C@H](N)CC(=O)O)C(=O)N[C@H](CC(N)=O)C(=O)N1CCC[C@H]1C(=O)N[C@@H](CCC(N)=O)C(=O)N[C@H](C)C(=O)N[C@@H](CCCNC(=N)N)C(N)=O` showed a half-life in data set [1] of 125 h. The inhibition result in the data set on NIH3T3 [2] and in the data set on NIH3T3 [4] was “Active” each time. Further, the Activity entry in the data set with NIH3T3 [3] is “Non-toxic”.

The compound `C=CCCC[C@](C)(NC(=O)[C@H](Cc1c[nH]cn1)NC(=O)[C@@H](N)CC(=O)O)C(=O)N[C@H]1CSCCCCSC[C@@H](C(N)=O)NC(=O)[C@H]([C@@H](C)CC)NC(=O)[C@H](CCC(N)=O)NC(=O)[C@@H]2CCCN2C1=O` (H-DH[S5]CPQIC-NH2; linker 4-8 via X4) had a half-life in data set [1] of 54.1 h. Moreover, the inhibition result with NIH3T3 [2] and in the data set on NIH3T3 [4] was “Active” in each case. The Activity result with NIH3T3 [3] is “Non-toxic”.

Consider `CC[C@H](C)[C@H](NC(=O)[C@H](CCC(N)=O)NC(=O)[C@@H]1CCCN1C(=O)[C@H](CS)NC(=O)[C@H](CC(N)=O)NC(=O)[C@H](Cc1c[nH]cn1)NC(=O)[C@@H](N)CC(=O)O)C(=O)N[C@@H](CS)C(N)=O` (H-DHNCPQIC-NH2), for which the half-life in data set [1] was 3.82 h. Besides, the Stability result in data set [5] is on record as “Stable”. The Activity result in the data set with NIH3T3 [3] is “Non-toxic”.

With `C=CCCC[C@](C)(NC(=O)[C@H](Cc1c[nH]cn1)NC(=O)[C@@H](CC(=O)O)NC(=O)CCCCCCCCCCC)C(=O)N[C@H](CC(N)=O)C(=O)N1CCC[C@H]1C(=O)N[C@@H](CCC(N)=O)C(=O)N[C@H](C)C(=O)N[C@@H](CCCNC(=N)N)C(N)=O`, the inhibition entry in the data set with NIH3T3 [2] and in the data set with NIH3T3 [4] was “Active” throughout. Besides, in the data set on NIH3T3 [3], the Activity result is listed as “Toxic”.

`C=CCCC[C@](C)(NC(=O)[C@H](Cc1c[nH]cn1)NC(=O)[C@@H](N)CC(=O)O)C(=O)N[C@@H](CS)C(=O)N1CCC[C@H]1C(=O)N[C@@H](CCC(N)=O)C(=O)N[C@H](C(=O)N[C@@H](CS)C(N)=O)[C@@H](C)CC` (H-DH[S5]CPQIC-NH2) showed a half-life in data set [1] of 1.48 h. In addition, the Stability entry in data set [5] is “Stable”. The Activity entry in the data set on NIH3T3 [3] is reported as “Non-toxic”.
